Consider 29 compounds from patent publication US20110200549A1, “Organic Compounds Suitable For Modulating Fragrance Compositions” (priority 2008, published 2011).

For experiment [1], the target named is T1, CYP2A13 (Homo sapiens, UniProt Q16696).
T1 construct: made in house; host or cells: Sf9 insect cells, recombinant baculovirus
T1 sequence (Q16696 1-494): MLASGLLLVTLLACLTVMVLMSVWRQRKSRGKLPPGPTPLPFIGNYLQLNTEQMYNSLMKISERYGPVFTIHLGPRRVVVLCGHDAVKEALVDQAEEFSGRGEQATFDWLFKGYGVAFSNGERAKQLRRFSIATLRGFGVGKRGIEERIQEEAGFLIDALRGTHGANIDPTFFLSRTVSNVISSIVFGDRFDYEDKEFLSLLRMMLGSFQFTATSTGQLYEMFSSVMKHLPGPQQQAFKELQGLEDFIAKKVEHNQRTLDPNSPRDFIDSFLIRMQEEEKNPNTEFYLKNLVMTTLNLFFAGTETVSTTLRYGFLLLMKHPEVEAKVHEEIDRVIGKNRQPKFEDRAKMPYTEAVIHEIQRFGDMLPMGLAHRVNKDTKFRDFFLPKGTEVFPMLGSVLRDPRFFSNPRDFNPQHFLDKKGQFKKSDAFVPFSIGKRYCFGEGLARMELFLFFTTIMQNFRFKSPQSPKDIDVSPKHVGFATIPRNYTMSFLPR
The experiment is described as follows: CYP2A13 inhibition, coumarin 7-hydroxylation (Umbelliferone fluorescence) in microsomes. The experiment is classed as biochemical. As to conditions: recombinant CYP2A13 + P450 reductase microsomes, coumarin 0.006 mM, 60 min at 37° C.; read-out: CYP2A13 inhibitor activity IC50. As to the method: Compounds that inhibit the activity of CYP2A13 are identified by using a standard reaction established for the enzyme. A known substrate is coumarin, and the product of the enzymatic reaction is 7-hydroxy-coumarin (Umbelliferone) which is strongly fluorescent. When a compound is added to the standard reaction and the formation of Umbelliferone is decreased, the compound is identified as an inhibitor, which can also be a competitive substrate of the enzyme. The compound is used at various concentrations and the concentration-dependent decrease in Umbelliferone formation allows to determine the concentration where the activity of the enzyme is reduced to the 50% level (IC50 value).
A test compound (details see Table 1) was incubated with CYP2A13 in the presence of a cytochrome P450 reductase. CYP2A13 and P450 reductase were employed in form of microsomes. CYP2A13 was produced in Sf9 cells using a recombinant baculovirus, under conditions known to the person skilled in the art, for example, as described in WO 2006/007751. P450 reductase is commercially available (BD Biosciences Gentest, USA). Preferably, the two enzymes are coexpressed in the same insect cells and microsomes prepared which contain both enzymes. The art of coexpression of two enzymes is known, and the coexpression CYP2A13 and P450 reductase is described in WO 2006/007751. […] An MOI of 4 for recombinant CYP2A13 baculovirus combined with an MOI of 3.5 for recombinant P450 reductase baculovirus routinely produced microsomes with considerable activity.
Microsomes were used which contained 7 pmoles CYP2A13. Tris buffer (1 M, pH 7.6) and water were added to give a buffer concentration of 0.1M. The test compound was prepared as a 50 mM stock solution in acetonitrile. The concentration of the standard substrate coumarin was 0.006 mM. Several samples of the test compound were prepared at various concentrations to give different final concentrations in the reaction: 0, 0.005, 0.01, 0.02, 0.05, 0.1 and 0.2 mM. The mixture was incubated for 10 min at 37° C. prior to the initiation of the enzymatic reaction by the addition of 0.005 ml of a solution of 50 mM NADPH in water. The final total volume was 0.2 ml, which is suitable for microtiter plate measurements. The samples were incubated for 60 min at 37° C. After 60 min, the enzymatic reaction was stopped by the addition of 0.02 ml cold 50% trichloroacetic acid (TCA) and incubated at 4° C. for 15 min. 0.005 ml of a solution of 50 mM NADPH in water was added to the control reaction which corresponds to the reaction without test compound and without NADPH, and as a consequence, no Umbelliferone was formed. Denatured proteins and other insoluble parts were separated by centrifugation (10 min, 560×g, room-temperature).
The samples were analysed spectrofluorometrically which allows to detect the formation of Umbelliferone as the enzymatic product of coumarin at an excitation wavelength of 340 nm and an emission wavelength of 480 nm.

Experiment [2] addresses T2, CYP2B6 (Homo sapiens, UniProt P20813).
T2 construct: made in house; host or cells: Sf9 insect cells, recombinant baculoviruses, coexpressed with P450 reductase
T2 sequence (P20813 1-491): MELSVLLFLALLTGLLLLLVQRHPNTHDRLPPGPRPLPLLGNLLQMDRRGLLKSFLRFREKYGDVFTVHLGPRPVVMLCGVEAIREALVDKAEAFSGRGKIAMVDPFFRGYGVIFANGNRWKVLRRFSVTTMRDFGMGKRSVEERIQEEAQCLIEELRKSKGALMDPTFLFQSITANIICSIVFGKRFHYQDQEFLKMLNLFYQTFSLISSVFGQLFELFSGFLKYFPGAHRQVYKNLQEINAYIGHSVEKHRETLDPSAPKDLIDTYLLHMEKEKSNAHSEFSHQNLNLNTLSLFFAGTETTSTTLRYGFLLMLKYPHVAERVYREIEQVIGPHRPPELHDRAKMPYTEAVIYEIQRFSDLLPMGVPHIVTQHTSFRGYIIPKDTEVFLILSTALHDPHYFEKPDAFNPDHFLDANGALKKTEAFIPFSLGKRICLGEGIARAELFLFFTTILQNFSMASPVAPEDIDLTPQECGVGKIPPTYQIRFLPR
The experiment is described as follows: CYP2B6 inhibition, 7-ethoxy-4-trifluoromethyl-coumarin fluorescence assay in microsomes. The experiment is classed as biochemical. As to conditions: CYP2B6 + P450 reductase microsomes, 7-ethoxy-4-trifluoromethyl-coumarin 6 μM, 40 min at 37° C.; read-out: CYP2B6 inhibitor activity IC50. On the procedure:
Test compounds that inhibit the activity of CYP2B6 are identified by using the same principle as described in Example 42, first paragraph.
A test compound (details see Table 2) was incubated with CYP2B6 in the presence of a cytochrome P450 reductase. CYP2B6 and P450 reductase are produced using recombinant baculoviruses and co-expressing the two proteins in Sf9 insect cells as described in Example 42. Alternatively, microsomes containing CYP2B6 and the reductase are commercially available (BD Biosciences Gentest, USA). Microsomes were used which contained 1.5 pmoles CYP2B6. Potassium phosphate buffer final concentration was 100 mM, (1M stock, pH 7.4). The test compound was prepared as a 50 mM stock solution in acetonitrile. The concentration of the standard substrate 7-ethoxy-4-trifluoromethyl-coumarin was 6 μM. Several samples of the test compound were prepared at various concentrations to give different final concentrations in the reaction: 0, 0.005, 0.01, 0.02, 0.05, 0.1 and 0.2 mM. […] The final total volume was 0.2 ml, which is suitable for microtiter plate measurements. The samples were incubated for 40 min at 37° C. After 40 min, the enzymatic reaction was stopped by the addition of […] 0.5M Tris-base/acetonitrile (18:72). 0.005 ml of a solution of 50 mM NADPH in water was added to the control reaction which corresponds to the reaction with test compound and enzyme but without NADPH, and as a consequence, no 4-trifluoromethyl-umbelliferone was formed. Denatured proteins and other insoluble parts were separated by centrifugation (5 min, 1800 rpm, at 10° C.).
The samples were analysed spectrofluorometrically which allows to detect the formation of 4-trifluoromethyl-umbelliferone as the enzymatic product at an excitation wavelength of 410 nm and an emission wavelength of 510 nm.

`CCCCCN(Cc1ccncc1)C(=O)OC` [Ex. 9, methyl pentyl(pyridin-4-ylmethyl)carbamate]: in experiment [1], the IC50 turned out to be 17 µM. Turning to `CCCCCN(C(C)=O)C(=O)C1CC1` [Ex. 33, N-acetyl-N-pentylcyclopropanecarboxamide], the figures for the IC50 in experiment [2] and in experiment [1] were 17 µM and 0.7 µM, respectively. `CCCCN(Cc1ccccc1)C(C)=O` [Ex. 6, N-benzyl-N-butylacetamide]: the IC50 in experiment [1] was found to be 8 µM. The same measure, in the same setting: with `CCCCCN(Cc1ccccn1)C(C)=O` [Ex. 22, N-pentyl-N-(pyridin-2-ylmethyl)acetamide] the figure was 10 µM. As to `CCCCCN(C=O)CC1CC1` [Ex. 36, N-(cyclopropylmethyl)-N-pentylformamide], the figures for the half-maximal inhibitory concentration (IC50) in experiment [2] and in experiment [1] were 49 µM and 1.3 µM, respectively. Take `CCCCCN(CCc1cccnc1)C(=O)OC` [Ex. 19, methyl pentyl(2-(pyridin-3-yl)ethyl)carbamate]: the IC50 in experiment [1] was found to be 41 µM. As to `CCCCCN(CCc1c[nH]cn1)C(C)=O` [Ex. 27, N-(2-(1H-imidazol-4-yl)ethyl)-N-pentylacetamide], the IC50 in experiment [2] is 2.5 µM; in experiment [1], 34 µM. For `CC(=O)N(CCc1ccccc1)Cc1ccccc1` [Ex. 35, N-benzyl-N-phenethylacetamide], the IC50 in experiment [1] was 52 µM. As for `CCCCCN(Cc1ccccc1)C(C)=O` [Ex. 1, N-benzyl-N-pentylacetamide], the IC50 worked out at 72 µM in experiment [2] and 0.3 µM in experiment [1]. Regarding `CCCCC/C(=C\C1CC1)C(=O)NC` [Ex. 38, (E)-2-(cyclopropylmethylene)-N-methylheptanamide], in experiment [1], the IC50 stood at 0.8 µM. As to `CCCCCN(C(C)=O)c1ccccc1` [Ex. 2, N-pentyl-N-phenylacetamide], the IC50 in experiment [2] is 46 µM; in experiment [1] it was 0.5 µM.

For the compound `CCCCC/C(=C\C1CC1)C(=O)N(C)C` [Ex. 40, (E)-2-(cyclopropylmethylene)-N,N-dimethylheptanamide], the IC50 in experiment [1] came to 9 µM. Take `CCCCCN(Cc1ccccc1)C(=O)OC` [Ex. 29, methyl benzyl(pentyl)carbamate]: the IC50 in experiment [2] stood at 20 µM; in experiment [1], 1.6 µM. For the compound `CCCCCN(CCc1ccccn1)C(=O)OC` [Ex. 17, methyl pentyl(2-(pyridin-2-yl)ethyl)carbamate], the IC50 in experiment [1] was found to be 44 µM.

Consider `CCCCCN(CCc1ccncc1)C(C)=O` [Ex. 20, N-pentyl-N-(2-(pyridin-4-yl)ethyl)acetamide], for which the IC50 worked out at 19 µM in experiment [2] and 13 µM in experiment [1].

As for `CCCCC/C(=C\c1ccccc1)C(=O)NC` [Ex. 37, (E)-2-benzylidene-N-methylheptanamide], the IC50 in experiment [1] was 0.5 µM.

Regarding `CCCCCN(CCc1cccnc1)C(C)=O` [Ex. 18, N-pentyl-N-(2-(pyridin-3-yl)ethyl)acetamide], the IC50 in experiment [1] stood at 25 µM. With `CCCCC/C(=C\c1ccccc1)C(=O)N(C)C` [Ex. 39, (E)-2-benzylidene-N,N-dimethylheptanamide], the IC50 in experiment [1] turned out to be 3 µM. In the case of `CCCCCN(Cc1ccccn1)C(=O)OC` [Ex. 23, methyl pentyl(pyridin-2-ylmethyl)carbamate], the IC50 in experiment [1] is 20 µM.

Take `CCCCCN(CCc1c[nH]cn1)C(=O)OC` [Ex. 28, methyl 2-(1H-imidazol-4-yl)ethyl(pentyl)carbamate]: in experiment [1], the IC50 amounted to 47 µM. Consider `CCCCCN(CCc1ccccc1)C(C)=O` [Ex. 3, N-pentyl-N-phenethylacetamide], for which the concentration for half-maximal inhibition (IC50) was determined as 93 µM in experiment [2] and 2 µM in experiment [1]. With `CCCCCN(CC1CC1)C(=O)OC` [Ex. 11, methyl cyclopropylmethyl(pentyl)carbamate], the 50% inhibitory concentration (IC50) was 28 µM in experiment [2] and 3 µM in experiment [1]. The like results for `CCCCCN(C(C)=O)C(=O)OC(C)(C)C` [Ex. 34, tert-butyl acetyl(pentyl)carbamate] were, in that order, 11 µM and 1.5 µM. `CCCCCN(Cc1cccnc1)C(C)=O` [Ex. 4, N-pentyl-N-(pyridin-3-ylmethyl)acetamide]: in experiment [1], the IC50 is 15 µM. Same read-out and setting: for `CCCCCN(Cc1ccncc1)C(C)=O` [Ex. 8, N-pentyl-N-(pyridin-4-ylmethyl)acetamide] the value was 11 µM. As to `CCCCCN(CCc1ccccn1)C(C)=O` [Ex. 16, N-pentyl-N-(2-(pyridin-2-yl)ethyl)acetamide], the IC50 in experiment [1] was determined as 24 µM. Consider `CCCCC/C(=C\C1CC1)C(N)=O` [Ex. 41, (E)-2-(cyclopropylmethylene)heptanamide], for which the IC50 in experiment [1] was found to be 1.1 µM. Same read-out and setting: with `CCCCCN(Cc1cccnc1)C(=O)OC` [Ex. 5, methyl pentyl(pyridin-3-ylmethyl)carbamate] the figure was 22 µM; with `CCCCCN(CCc1ccncc1)C(=O)OC` [Ex. 21, methyl pentyl(2-(pyridin-4-yl)ethyl)carbamate], 2 µM.
